# Assay results published in PMC9945084, “Stimulation of natural killer cells with small molecule inhibitors of CD38 for the treatment of neuroblastoma” (Chemical Science, 2023).
# Values joined by “and” are separate entries in the source; they are usually repeats but may differ in a detail not shown here. Equal entries are not always repeated.
# Assays:
# [1] = biological target: T1, human recombinant CD38 (hydrolase activity) (Homo sapiens, UniProt P28907); assay: Human recombinant CD38 fluorometric enzyme assay, hydrolase activity (εNAD+); type: biochemical; conditions: 25 μM compound
# [2] = biological target: T1, human recombinant CD38 (hydrolase activity); assay: as above; type: biochemical; conditions: for remaining activity at 50 µM: 50.0 μM compound, 10 nM recombinant CD38, 10 μM εNAD+; for IC50: recombinant CD38 enzyme assay; for decrease in potency relative to hit compound 1: CD38 hydrolase IC50 versus 1
# Protocol: Compounds were screened for inhibition against CD38 hydrolase activity in a human recombinant CD38 fluorometric assay. Recombinant CD38 was diluted in assay diluent (PBS, 0.02% Tween-20, pH 7.4) to a 4× working concentration (40 nM). Test compounds were diluted in assay diluent to a working concentration of 200 μM. Working CD38 (25.0 μL) and the 4× test compound (25.0 μL) were pipetted into a black 96-well microplate and incubated for 15 minutes at 25 °C on an orbital shaker. Following incubation, 20 μM εNAD^+ (50 μL) was pipetted into each well and fluorescence intensity was measured kinetically for 10 minutes (ex/em: 300/410 nm) using a Molecular Devices SpectraMax iD3 plate reader. Final concentrations of all components were: 10 nM recombinant CD38, 50 μM test compound (50 nM for control compound 3), and 10 μM εNAD^+. Means for data points at 1 minute 49 seconds were normalized to vehicle treated control. Values were expressed as percent remaining activity of CD38. Each assay was conducted in technical and experimental triplicate and compared to literature reported values of 14.
# [3] = system: SHSY5Y-GFP NB cells; assay: SHSY5Y-GFP and PB NK cell co-culture assay with ch14.18-IL2; type: cell-based, human
# Protocol: Following optimization, SHSY5Y-GFP cells were plated at 25 000 cells per well and incubated for 24 hours. PB NK cells stained with cell tracker deep red were added to SHSY5Y-GFP cells with 50 ng mL^−1 ch14.18-IL2 and treated with 2, 14 or vehicle control. Cells were incubated for 90 minutes at 37 °C and imaged using a BioTek Cytation 5 at 20× (Fig. 11A–C). Live SHSY5Y-GFP cells were quantitated by measuring the integrated GFP fluorescence intensity. After only 90 minutes treatment with a 1.0 μM concentration of 2 and 50 ng mL^−1 ch14.18-IL2a caused a 14 ± 3% decrease in SHSY5Y-GFP fluorescent area (Fig. 11B) relative to vehicle-treated control (Fig. 11A). […] Fig. 12 is a close-up view from a representative well showing the effects of 1 μM 2 combined with 50 ng mL^−1 ch14.18-IL2.
# SHSY5Y-GFP NB cells were plated at a concentration of 25 000 cells per well (100 μL) for 12 hours on a black, clear-bottom, 96-well microplate. PB NK cells were washed with PBS and resuspended in 5 μM cell tracker deep red in RPMI 1640 without FBS for 30 minutes at 37 °C, 5% CO2. Following incubation, cells were washed with PBS and resuspended in RPMI 1640 supplemented with 10% FBS. Compounds were dissolved in DMSO and diluted to a 4 μM working solution with cell culture medium. […] The sum integration of GFP area was measured and normalized to vehicle-treated control. […]
# [4] = system: NAD+ levels; set-up: method as in PMID 35497564; conditions: cited from earlier work
# [5] = system: CD38 hydrolase activity; conditions: cited from earlier work
# [6] = system: donor 3 PB NK cells (IFNγ secretion); assay: 20 day treatment of PB NK cells, IFNγ in supernatant (Lumit IFNγ assay); type: cell-based, human; conditions: donor 3, fresh medium every 3 days, day 20
# Protocol: The TME has the ability to down regulate NK cell activation and function, therefore it is important to discern whether inhibition of CD38 hydrolase activity over an extended period will improve NK cell activation and support a persistent response.[62] To address this question, donor 3 PB NK cells were plated on a 12-well plate at a confluency of 1 × 10^6 cells mL^−1 in Immunocult-XF T cell expansion medium supplemented with 500 IU mL^−1 IL-2, 10 ng mL^−1 IL-15, and 0.2 μL mL^−1 CD2/CD3/CD28 T cell activator. Cells were treated with vehicle control, 2, or 14. Cells were treated with fresh medium every 3 days over the course of 20 days. Cells from each treatment group were counted on the 20th day of treatment and viability determined using trypan blue. NK cells treated with 2 or 14 were normalized to vehicle control with the percent change in viable cells presented as a function of the treatment condition (Fig. 8A). We observed 43 ± 6% more viable cells in the group treated with 14 and 36 ± 13% more viable cells in the group treated with 2, relative to vehicle control. Additionally, on the 20th day of treatment the cell supernatant was collected and analyzed for IFNγ using the Promega Lumit IFNγ assay. Treatment groups were normalized to vehicle control and the data presented as IFNγ % difference as a function of treatment (Fig. 8B). […]
# [7] = system: Human PB NK cells (IFNγ secretion); assay: Quantitation of IFNγ secreted by PB NK cells, 24 h (Lumit IFNγ assay); type: cell-based
# Protocol: In light of the substantial change in viability/proliferation of PB NK cells following treatment with 2, changes in the ability of treated NK cells to secrete IFNγ were measured.[60,61] Human PB NK cells (purity > 90%) were added to a 96-well plate at a confluency of 49 000 cells per well in Immunocult-XF T cell expansion medium supplemented with 500 IU mL^−1 IL-2, 10 ng mL^−1 IL-15, and 0.2 μL mL^−1 CD2/CD3/CD28 T cell activator. These cells were exposed to varying concentrations of 2 or 14 for 24 hours, followed by quantification of IFNγ using a Lumit IFNγ assay kit (W6040, Promega, Madison, WI). Treatment groups were normalized to vehicle-treated control and data was expressed as percent change in IFNγ. As often happens, we encountered a wide variability in the response of human primary cells from different donors. […] Despite the variability in the magnitude of the IFNγ response, the trend in all 3 donors was a dose-dependent increase for both 2 and 14. Decreases in IFNγ expression at higher doses of both compounds in donors 2 and 3 may be due to modest cytotoxicity.
# Human PB NK cells were plated at 49 000 cells per well (60 μL per well) on a white, clear-bottom, 96-well microplate in Immunocult-XF T cell expansion medium supplemented with 1× penicillin/streptomycin, 500 IU mL^−1 IL-2, 10 ng mL^−1 IL-15, 0.2 μL mL^−1 CD2/CD3/CD28 T cell activator. Test compounds were dissolved in DMSO and diluted to a 4× working solution. Working test compound was added to the cells (20 μL) and the cells were incubated at 37 °C, 5% CO2 for 24 hours. The last 3 columns on the microplate were left empty for IFNγ standards. The provided human IFNγ standard (10 μg mL^−1) was diluted to 10 000 pg mL^−1 using cell culture medium. The 10 000 pg mL^−1 solution was serially diluted 3.33-fold for a total of 7 standard concentrations. The IFNγ standards were plated (80 μL) in the empty columns (in triplicate) following incubation. A 5× solution of both antibodies was prepared by combining the Lumit Anti-hIFN-γ-mAb-LgBiT (24 μL) and the Lumit Anti-hIFN-γ-mAb-SmBiT (24 μL) with cell culture medium (2.4 mL). The 5× antibody solution (20 μL) was pipetted into each well. The microplate was briefly mixed for 15 seconds on a shaker at 250 rpm and incubated for 90 minutes at 37 °C, 5% CO2. Following incubation, the microplate was allowed to rest at 25 °C for 15 minutes. The Lumit detection substrate (160 μL) was diluted with Lumit detection buffer B (3040 μL) and pipetted into each well (25 μL). The microplate was allowed to incubate for 5 minutes at 25 °C and then the luminescence was measured using a Molecular Devices SpectraMax iD3 plate reader. A standard curve with averaged RLU measurements of the IFNγ concentrations was determined with GraphPad Prism using 4-parameter logistic curve fitting. […]
# [8] = system: CD38 hydrolase activity; set-up: method as in PMID 26864107; conditions: cited from earlier work
# [9] = system: CD38 cyclase activity; set-up: method as in PMID 26864107; conditions: cited from earlier work
# [10] = system: SHSY5Y-GFP cells; assay: Proliferative effect on SHSY5Y-GFP cells alone, 24 h imaging; type: cell-based, human; conditions: 1.0 μM, at both 20 000 and 30 000 cells per well
# Protocol: SHSY5Y-GFP cells were plated at 20 000, 30 000, 40 000, and 50 000 cells per well with 6 test wells each. Cells were incubated for 24 hours and imaged with a BioTek Cytation 5 at 20× with 4 fields per well using brightfield and GFP channels. The data is presented as the sum of SHSY5Y-GFP cells in imaged fields as a function of cells per well (Fig. 9A). Optimal plating density was determined to be between 20 000 and 30 000 cells per well. Additionally, we wanted to rule out proliferative effects in SHSY5Y-GFP cells treated with 2. Cells were plated at 20 000 or 30 000 cells per well and treated with varying concentrations of 2 or vehicle control for 24 hours and imaged as described above. Data was then expressed as the sum of SHSY5Y-GFP cells in imaged fields as a function of the concentration of 2 (Fig. 9B).
# T1 sequence (P28907 whole entry): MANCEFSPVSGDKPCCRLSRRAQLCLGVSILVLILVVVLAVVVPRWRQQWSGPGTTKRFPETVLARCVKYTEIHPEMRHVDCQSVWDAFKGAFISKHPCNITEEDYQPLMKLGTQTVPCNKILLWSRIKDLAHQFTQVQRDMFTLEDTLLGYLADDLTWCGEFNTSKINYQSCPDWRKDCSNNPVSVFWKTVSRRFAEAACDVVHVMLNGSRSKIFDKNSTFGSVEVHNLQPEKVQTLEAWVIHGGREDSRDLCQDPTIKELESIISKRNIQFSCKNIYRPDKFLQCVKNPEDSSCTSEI
remaining activity at 50 µM [2],IC50 [2],decrease in potency relative to hit compound 1 [2],Compound,also measured
,,,Cc1nc(NC2=NCN(CCN3CCOCC3)CN2)nc2c(C)cccc12 [Compound 9],remaining activity at 25 µM [1]: 65.3 ± 0.6%
48.1 ± 6.8%,22.4 ± 1.1 µM,,CCc1ccc2c(C)nc(NC3=NC(C)(C)C=C(C)N3)nc2c1 [Compound 13],
49.1 ± 2.2%,23 µM and 23.8 µM,5 fold,CC1=CC(C)(C)N=C(Nc2nc(-c3ccccc3)c3cc(C)cc(C)c3n2)N1 [Compound 11],
,0.078 ± 0.03 µM,,"COCCO[C@H]1CC[C@H](Nc2cc(=O)n(C)c3ccc(-c4cncs4)cc23)CC1 [Compound 14, reference compound]","difference in SHSY5Y-GFP cells versus vehicle-treated control, in words ([3]; 1 μM + 50 ng mL−1 ch14.18-IL2, 90 minutes): not a statistically significant difference; change in NAD+ levels [4]: significant increases; mode of inhibition of CD38 [5]: mixed inhibition; more IFNγ secreted relative to vehicle control [6]: 23 ± 2%; remaining activity at 0.05 µM ([2]; positive control 14, used at 50.0 nM according to b14 and b58): 60.3 ± 1.8%; increases in IFNγ levels, in words ([7]; all 3 donors): similaer to the effects of 2"
,,,daratumumab,effect on CD38 hydrolase activity [8]: enhances CD38 hydrolase activity; effect on CD38 cyclase activity [9]: modest inhibitory activity
61.6 ± 2%,4.2 ± 0.5 µM,,CC1=CC(C)(C)N=C(Nc2nc(C)c3cc(C)cc(C)c3n2)N1 [Compound 1],mode of inhibition of CD38 hydrolase activity [5]: mixed inhibition
41 ± 0.03%,8.4 ± 0.7 µM,2 fold,CC1=CC(C)(C)N=C(Nc2nc(C)c3cccc(C)c3n2)N1 [Compound 3],
57 ± 0.3%,8 µM and 8.3 µM,2 fold,CCOc1ccc2nc(Nc3nc(=O)c(Cc4ccccc4)c(C)[nH]3)nc(C)c2c1 [Compound 5],
60.3 ± 0.7%,4 ± 0.9 µM,,Cc1nc(Nc2nc(CCC(C)C)cc(=O)[nH]2)nc2ccccc12 [Compound 7],
66.8 ± 0.6%,,,Cc1nc(NC2=NCCC(=O)N2)nc2ccccc12 [Compound 6],
,1.9 ± 0.1 µM,,"COc1cc(C)cc2c(C)nc(NC3=NC(C)(C)C=C(C)N3)nc12 [Compound 2, 8-Methoxy-4,6-dimethyl-N-(4,4,6-trimethyl-1,4-dihydropyrimidin-2-yl)quinazolin-2-amine]","decrease in SHSY5Y-GFP fluorescent area relative to vehicle-treated control ([3]; 1.0 μM + 50 ng mL−1 ch14.18-IL2, 90 minutes, effector : target 1 : 1): 14% and 14 ± 3%; change in NAD+ levels [4]: significant increases; cell number difference between vehicle-treated and treated SHSY5Y-GFP cells [10]: < 4%; more IFNγ secreted relative to vehicle control [6]: 20 ± 1%; remaining activity at 25 µM [1]: 5.6 ± 0.8%; increase in IFNγ, donor 1 ([7]; donor 1, 1.0 μM): 759 ± 45%; increase in IFNγ, donor 2 ([7]; donor 2, 0.111 μM): 100 ± 29%; increase in IFNγ, donor 3 ([7]; donor 3, 0.037 μM): 18 ± 2%"
58.2 ± 1.4%,5.1 ± 0.9 µM,,Cc1cc(C)c2nc(Nc3nc(C)c(C)c(O)n3)nc(C)c2c1 [Compound 4],
52 ± 9.6%,,~3 fold,CC1=NC(Nc2nc(C)c3cc(C)cc(C)c3n2)=NC(C)(C)C1 [Compound 12],
